Assay results taken from PubChem BioAssay AID652058 (Broad Institute, 2013).
Results filed as inconclusive are left out.

Tested on: HeLa Env/CEM cell fusion, luciferase, 16-24 h
Assay: ZM109 Env clade C HIV-1 fusion inhibitors, dose response, HeLa effector, CEM target cells, luciferase, cherry-pick (AID 652058)

Question: Which AC50 does the source give for O=C(C[C@H]1C[C@H]2c3cc(NC(=O)c4ccc5c(c4)OCO5)ccc3O[C@H]2[C@H](CO)O1)NCc1ccc(Oc2ccccc2)cc1 here?
Answer: Its AC50 is 13.7 µM.
